Experimental data taken from patent US20090088482A1, “Compositions and Methods For Treating Heart Failure” (The Trustees Of Columbia University In The City New York, priority 2003, published 2009).

Tests used:
[1] = tested on: rats with chronic heart failure induced by coronary artery ligation; assay: Echocardiography and direct hemodynamic monitoring in rats with chronic heart failure induced by coronary artery ligation (Example 2); format: in vivo; settings: 2 mg/kg/day oral, 8 weeks
Experimental: (§1) Chronic heart failure was induced by coronary artery ligation in rats, and was confirmed by echocardiography, three weeks post-surgery. Three groups of rats were studied: (1) Chronic heart failure without clenbuterol (n=7); (2) chronic heart failure+clenbuterol (2 mg/kg/day; n=5); and (3) rats after sham operation (n=11). After 8 weeks of oral clenbuterol therapy, echocardiography and direct hemodynamic monitoring were performed. Rat hearts were then harvested for ex vivo left ventricular pressure-volume relationship (LVPVR) tracings, histologic (trichrome) sections, and molecular assays. Western analysis for myocardial calcium-handling proteins (ryanodine receptors (RyR), SERCA2a, phospholamban, and calcium-sodium exchanger) was assessed by densitometry.

[2] = tested on: rats with chronic heart failure induced by coronary artery ligation; assay: Ex vivo left ventricular pressure-volume relationship (LVPVR) tracings (Example 2); format: in vivo; settings: 2 mg/kg/day oral, 8 weeks, untreated CHF 1.11
Experimental: as §1

[3] = tested on: ryanodine receptors (RyR); assay: Western analysis of myocardial calcium-handling proteins by densitometry: RyR (Example 2); format: in vivo, rats; settings: 2 mg/kg/day oral, 8 weeks, untreated CHF 1.6±0.4, Sham 2.8±0.8
Experimental: as §1

[4] = tested on: SERCA2a; assay: Western analysis of myocardial calcium-handling proteins by densitometry: SERCA2a (Example 2); format: in vivo, rats; settings: 2 mg/kg/day oral, 8 weeks, untreated CHF 1.7±0.5, Sham 2.2±0.4
Experimental: as §1

[5] = tested on: rats with HF induced by LAD ligation; assay: Ex vivo end-diastolic pressure-volume relationships (EDPVR) (Example 5); format: in vivo, Sprague-Dawley rats; settings: for passive LV Volume at 30 mmHg, normalized for heart weight: ex vivo EDPVR, HF 0.50, Sham 0.36
Experimental: A total of 69 rats were used in this study. LAD ligation surgery was performed in 60 rats, of which 37 (62%) survived three weeks post-surgery. Another 9 rats underwent a sham operation (group Sham), with 7 (78%) survivors. Three weeks post-operatively, echocardiography was performed to establish the baseline level of HF (as measured by fractional shortening). The LAD ligation rats were divided into 4 treatment groups matched for the degree of HF and were randomly assigned to one of the following therapies for 9 additional weeks: (1) rats receiving no therapy (group HF, n=9); (2) rats receiving high-dose clenbuterol at 1 mg/kg/day (group Clen, n=9); (3) rats receiving high-dose metoprolol at 200 mg/kg/day (group Meto, n=9); or (4) rats receiving concurrent high-dose clenbuterol at 1 mg/kg/day and high-dose metoprolol therapy at 200 mg/kg/day (group Clen+Meto, n=10).
An 18-gauge angiocatheter was placed into the LV through the aortic valve and connected to a three-way stopcock. A fine hemostat was placed on the atrial side of the mitral annulus to seal the LV. After eliminating any air from the system, LV pressures were measured using a […] Millar micromanometer introduced through the angiocatheter. While recording LV pressure using an analog-to-digital conversion reading system (Chart 4, version 4.2.4; ADInstruments, Colorado Springs, Colo.), saline was infused into the LV cavity in 50 μL increments using a calibrated 1 mL syringe. The infused fluid was withdrawn and measured to ensure that no leakage had occurred. Data was utilized only if >95% of the injected volume was recovered. Using commercial software (Igor Pro, version 4.0.5.1; WaveMetrics, Lake Oswego, Oreg.), values of LV pressure (P) and volume (V) were fitted according to the equation: […]
where β is the base constant and α is an index of ventricular stiffness, as previously described (Mirsky I. Assessment of passive elastic stiffness of cardiac muscle: mathetical concepts, physiologic and clinical considerations, directions of future research. Prog Cardiovasc Dis. 1976; 18:277-308). […]

[6] = tested on: ryanodine receptor (RyR); assay: Western blot of calcium-handling protein expression: RyR (Example 5); format: in vivo, Sprague-Dawley rats; settings: FIG. 6; not different from Sham
Experimental: (§2) Five rat hearts from each group (HF, Clen, Meto, Clen+Meto, and Sham) were randomly selected and used for analysis of calcium-handling protein expression levels. Lysates of LV tissue were obtained with the use of a homogenizer (Brinkmann Instruments, Westbury, N.Y.). Approximately 150 mg of heart tissue was placed in a seven-fold volume of lysis buffer (20 mM/L Na-HEPES, 4 mM/L EGTA, 1 mM/L DTT, pH 7.4) in the presence of proteinase inhibitors (0.1 mM/L leupeptin and 0.3 mM/L PMSF). The protein concentration was determined using a protein assay kit (Bio-Rad Laboratories, Hercules, Calif.). Samples (50 μg) were denatured at 95° C. and size-fractionated using SDS-polyacrylamide gel electrophoresis (PAGE) under reducing conditions. SDS-PAGE was performed using 7.5% separating and 5% stacking gels for SERCA2a and 5% separating and 4% stacking gels for RyR. Electrophoresis was performed in a Miniprotean II cell (Bio-Rad Laboratories, Hercules, Calif.) followed by transfer of proteins (using 34 V overnight at 4° C.) onto nitrocellulose in a mini trans-blot transfer cell (Bio-Rad Laboratories, Hercules, Calif.) filled with transfer buffer (25 m/L Tris-HCl, pH 8.3, 192 mM/L glycine and 20% methanol). […]
(§3) Optical densities of protein level signals were quantified with the use of a laser scanning densitometer (Molecular Dynamics, Palo Alto, Calif.) in a blinded manner. […]

[7] = tested on: sarcoplasmic reticulum calcium-ATPase (SERCA2a); assay: Western blot of calcium-handling protein expression: SERCA2a (Example 5); format: in vivo, Sprague-Dawley rats; settings: FIG. 6; not different from Sham
Experimental: as §2, §3

| Structure (SMILES) | LVEDP ([1]; untreated CHF 27±5, Sham 12±3) | LV fractional area change ([1]; untreated CHF 35±3, Sham 53±2) | LV pressure ([1]; untreated CHF 94±2.8, Sham 114±3.3) | LVdP/dt ([1]; untreated CHF 2,570±384, Sham 3,728±193) | LVPVR volume for a given LV pressure=15 mmHg [2] | Protein level of RyR [3] | Protein level of SERCA2a [4] | passive LV Volume at 30 mmHg, normalized for heart weight [5] | RyR protein expression level relative to tubulin, versus HF group [6] | SERCA2a protein expression level relative to tubulin, versus HF group [7] | shift of EDPVR curve versus Sham rats ([5]; ex vivo, normalized for heart weight) |
| --- | --- | --- | --- | --- | --- | --- | --- | --- | --- | --- | --- |
| CC(C)(C)NCC(O)c1cc(Cl)c(N)c(Cl)c1 (stereo not drawn) [Clen, clenbuterol] | 15±6 mmHg | 42±1% | 100±6 mmHg | 3,250±325 mmHg/s | 1.02 mL | 2.2±0.7 | 2.0±0.2 | 0.42 mL/gm of heart weight | significantly improved | significantly improved |  |
| COCCc1ccc(OCC(O)CNC(C)C)cc1 (stereo not drawn) [Meto, metoprolol] |  |  |  |  |  |  |  | 0.51 mL/gm of heart weight |  |  | rightward shift |
